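Following 48 hours of exposure in 96-well plates, responses at five concentrations were used to interpolate endpoints linearly. TGI marks complete inhibition of growth.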
How the values were obtained:
Assay in all cases: NCI tumour cell line growth inhibition, 48 h
DMS 273 small cell lung = system: DMS 273 small cell lung
HOP-18 NSCLC = system: HOP-18 NSCLC
LXFL 529 NSCLC = system: LXFL 529 NSCLC
M19-MEL melanoma = system: M19-MEL melanoma
RXF-631 renal = system: RXF-631 renal
XF 498 CNS = system: XF 498 CNS
MDA-N = system: MDA-N
P388 leukemia = system: P388 leukemia
P388/ADR leukemia = system: P388/ADR leukemia
SN12K1 renal = system: SN12K1 renal

SMILES	TGI (DMS 273 small cell lung)	TGI (HOP-18 NSCLC)	TGI (LXFL 529 NSCLC)	TGI (M19-MEL melanoma)	TGI (RXF-631 renal)	TGI (XF 498 CNS)	TGI (MDA-N)	TGI (P388 leukemia)	TGI (P388/ADR leukemia)	TGI (SN12K1 renal)
CC1CC(C2=CC=CCS2)=Nc2ccccc2S1 (configuration not stated)	> 100 µM	> 100 µM	> 100 µM	> 100 µM	> 100 µM	> 100 µM	–	–	–	–
CC(C)/C=C1\CCC(CN2CCCC2)C1=O (configuration not stated)	–	17.3 µM	10.1 µM	> 60.4 µM	–	31.5 µM	–	–	–	–
O=C[C@@H](CO)O[C@H](C=O)c1c[nH]c(=O)[nH]c1=O	265 µM	267 µM	–	406 µM	–	86.7 µM	307 µM	307 µM	373 µM	183 µM
CCOC(=O)Nc1cc2nnc(-c3ccccc3)nc2c(N)n1	–	–	> 100 µM	> 100 µM	–	> 100 µM	–	–	–	–
Clc1ncnc(Cl)c1Cl	–	–	–	–	–	–	> 100 µM	–	–	–
COc1c(C=O)c2c(c(OC)c1OC)-c1ccc(OC)c(=O)cc1[C@@H](NC(C)=O)CC2	> 100 µM	> 100 µM	> 100 µM	> 100 µM	18.2 µM	37 µM	–	–	–	–
CC(C)(C)NNC(=O)/C(=C/c1ccc([N+](=O)[O-])cc1)NC(=O)c1ccccc1	80 µM	> 100 µM	> 100 µM	> 100 µM	–	> 100 µM	–	–	–	–
COC(=O)C1=C(c2ccc(OC)c(OC)c2)OC(c2ccc(OC)c(OC)c2)C1 (configuration not stated)	> 100 µM	> 100 µM	62.1 µM	> 100 µM	–	65.2 µM	–	–	–	–
CCOc1ccccc1NC(=O)CC1C(=O)Nc2ccccc2S1=O (configuration not stated)	> 100 µM	–	> 100 µM	> 100 µM	–	> 100 µM	–	–	–	–
COc1cc(/C=C/c2ccncc2)cc(OC)c1OC	> 100 µM	> 100 µM	> 100 µM	–	> 100 µM	91.3 µM	–	–	–	–
COc1ccc(C(=O)c2cc(OC)c(OC)c(OC)c2)cc1	> 100 µM	> 100 µM	> 100 µM	> 100 µM	> 100 µM	> 27.7 µM	0.0452 µM	–	–	–
Cc1c(N2CCCC2)cc2c(c1NC(=O)c1ccccc1Cl)C(C)(C)CC2(C)C	–	–	–	–	–	–	28.5 µM	–	–	–
O=C(O)C/C(=C\c1ccco1)C(=O)O	–	–	–	–	–	–	> 100 µM	–	–	–
CS/C(=N\C(=S)N(C)C)N(c1ccccc1)c1nc(=[N+](C)C)ss1	15.4 µM	–	15.9 µM	14.8 µM	–	–	–	–	–	–
Cc1c2cc[n+](C)cc2c(C)c2c1sc1ccccc12	7 µM	36.2 µM	5.13 µM	4.04 µM	14.4 µM	2.69 µM	11.3 µM	–	–	–
O=C(Nc1ccc(Cl)cc1Cl)C1C(=O)N(c2ccc(Cl)cc2Cl)C(=O)/C1=N\Nc1ccc([N+](=O)[O-])cc1[N+](=O)[O-] (configuration not stated)	> 100 µM	> 100 µM	> 100 µM	> 100 µM	> 100 µM	–	–	–	–	–
O=C(Nc1c(O)[nH]c(=S)[nH]c1=O)c1ccccc1F	–	> 100 µM	> 100 µM	> 100 µM	> 100 µM	–	–	–	–	–
CCCCCCCCCCCCNC(C)=O	–	–	–	–	–	–	31 µM	–	–	–
COc1cccc2c1C(=O)C=CC2=O	30.8 µM	23.6 µM	6.37 µM	16.1 µM	–	5.25 µM	–	–	–	–
CN(C)c1ccc2c(=O)c3ccccc3oc2n1	> 100 µM	–	> 100 µM	> 100 µM	> 100 µM	> 100 µM	–	–	–	–
NC(=O)NNCc1ccccc1	–	–	–	–	–	–	> 100 µM	–	–	–

SMILES	TGI (DMS 273 small cell lung)	TGI (HOP-18 NSCLC)	TGI (LXFL 529 NSCLC)	TGI (M19-MEL melanoma)	TGI (RXF-631 renal)	TGI (XF 498 CNS)	TGI (MDA-N)	TGI (P388 leukemia)	TGI (P388/ADR leukemia)	TGI (SN12K1 renal)
Cc1ccc(S(=O)(=O)OC2CCN(C)CC2)cc1	–	–	–	–	–	–	> 100 µM	–	–	–
CC(C)[C@]12O[C@H]1[C@@H]1O[C@]13[C@]1(O[C@H]1C[C@H]1C4=C(CC[C@@]13C)C(=O)OC4)[C@@H]2O	–	–	–	–	–	–	0.0238 µM	–	–	–
Cc1ccc(S(=O)(=O)N[C@H](C(=O)O)c2ccccc2)cc1	> 100 µM	> 100 µM	> 100 µM	> 100 µM	> 100 µM	> 100 µM	–	–	–	–
CCOC(=O)c1ccc2[nH]c(-c3ccc(S(=O)(=O)F)cc3)cc(=O)c2c1	–	–	–	–	–	–	> 100 µM	–	–	–
Cc1ccc(NC(=O)c2cc3cc(N=Nc4ccc(Br)cc4)ccc3oc2=O)cc1	> 100 µM	–	–	–	–	> 100 µM	–	–	–	–
CC[C@]12CCCN3CCc4c(n(c5ccccc45)C(=O)C1)[C@@H]32	–	–	–	–	–	–	4.79 µM	–	–	–
N#Cc1ccccc1NC(=O)/C(=N\N)C(C(=O)c1ccncc1)C1OC(=O)c2ccccc21 (configuration not stated)	–	–	> 100 µM	> 100 µM	–	> 100 µM	–	–	–	–
CC1CC[C@]2(C(=O)O)CCC3(COC(=O)/C=C\c4ccc(O)cc4)C(=CCC4[C@@]5(C)CC[C@H](O)C(C)(C)C5CC[C@]43C)[C@@H]2[C@H]1C (some centres not stated)	50.3 µM	69.8 µM	> 100 µM	50.8 µM	77.9 µM	–	–	–	–	–
COc1cc(C2c3[nH]c4ccccc4c3C[C@H]3COC(=O)N23)cc(OC)c1OC (some centres not stated)	–	–	–	–	–	–	0.0492 µM	–	–	–
O=[N+]([O-])c1ccc(S(=O)(=O)Cc2ccccc2)c([N+](=O)[O-])c1	–	–	–	–	–	–	4.09 µM	–	–	–
COc1cccc(C2c3cc4c(cc3OC(C)(N3CCCC3)C2C)OCO4)c1OC (configuration not stated)	–	–	–	–	–	–	34.7 µM	–	–	–
Cc1ccccc1NC(=O)C(=O)C(C#N)c1ccc(Cl)cc1 (configuration not stated)	> 100 µM	> 100 µM	> 100 µM	–	> 100 µM	> 100 µM	–	–	–	–
O=C(O)CCNc1ccccc1C(=O)O	–	–	–	–	–	–	> 100 µM	–	–	–
CN1C(=O)CC(c2cccc(C3CC(=O)N(C)C3=O)n2)C1=O (configuration not stated)	> 100 µM	> 100 µM	> 100 µM	> 100 µM	–	–	–	–	–	–
COc1ccccc1/C=C(\C#N)c1ccccc1	50 µM	> 100 µM	> 100 µM	> 100 µM	–	–	–	–	–	–
CN1N=CSC12C(=O)N(c1ccc(Cl)cc1)C(=O)N2c1ccc(Cl)cc1 (configuration not stated)	–	69.7 µM	> 100 µM	> 100 µM	–	–	–	–	–	–
O=C(Nc1ccccc1-c1n[nH]c(=S)[nH]c1=O)C(F)(F)F	> 100 µM	–	> 100 µM	> 100 µM	–	> 100 µM	–	–	–	–
COc1ccc(C2CC(=O)c3c(O)cc(O)cc3O2)cc1O (configuration not stated)	> 100 µM	–	> 100 µM	> 100 µM	> 100 µM	> 100 µM	–	–	–	–
Cc1cn(Cc2ccccc2CCO)c(=S)[nH]c1=O	> 100 µM	> 100 µM	> 100 µM	> 100 µM	> 100 µM	> 100 µM	–	–	–	–
CC(C)(C)OC1=C(OC(C)(C)C)C(O)(c2ccccc2)C1=O (configuration not stated)	> 100 µM	> 100 µM	> 100 µM	> 100 µM	> 100 µM	–	–	–	–	–
